From paper PMC9084902, “Low-Molecular Weight Protamine Overcomes Chondroitin Sulfate Inhibition of Neural Regeneration” (Frontiers in Cell and Developmental Biology, 2022)
Entries after “also recorded” stand apart in the source; their conditions may differ.

Tests used:
hippocampal neurons [1] = experiment: neurite outgrowth on precoated plastic without aggrecan, hippocampal neurons; type: cell-based, Wistar rat; conditions: precoated 10 μg/ml on plastic, no aggrecan, 2 days; about 70 neurons/replicate; p < 0.0001, n = 7
Description: (§1) The cortex or hippocampus were obtained from 17 days-old Wistar rat embryos and transferred to ice-cold preparation solution. Neurons were further isolated exactly as described earlier in Sahu’s publication ([Sahu et al., 2019]). Primary rat cortical or hippocampal neurons (E17 Wistar rats) were cultured in 96-well plates at the density of 20000 cells/well in Neurobasal medium supplemented with B27 serum substitute, penicillin, streptomycin and L-glutamate for 2 days in vitro (DIV). The plates were precoated with aggrecan (5 ug/ml, 150 µl/well). Protamine or protamine peptides were added to the culture medium at different concentrations. To analyze the effect of protamine or its fragment on neurite outgrowth, the plates were coated with 10 μg/ml of protamine or LMWP. For the experiment with chondroitinase, the aggrecan-coated plates were treated with chondroitinase ABC (Amsbio AMS. E1028, lot CF0029) for 4 h followed by 2 times washing with PBS before cell plating, and the cell culture imaging was carried out after 3 DIV incubation with 4 uM LMWP added to the medium. Neurite outgrowth was imaged with phase contrast microscopy (Olympus IX70 microscope and Retiga 2000R digital camera) using both x10 and x20 objectives. […] Neurite length was measured with ImageJ software and averaged from 2 to 3 independent experiments with 1–2 technical replicas in each independent experiment.

hippocampal neurons [2] = experiment: cell toxicity seen in neuronal morphology / neuronal cells in vitro; type: cell-based, Wistar rat; conditions: neuronal systems, Figures 2, 4
Description: The cortex or hippocampus were obtained from 17 days-old Wistar rat embryos and transferred to ice-cold preparation solution. Neurons were further isolated exactly as described earlier in Sahu’s publication ([Sahu et al., 2019]). Primary rat cortical or hippocampal neurons (E17 Wistar rats) were cultured in 96-well plates at the density of 20000 cells/well in Neurobasal medium supplemented with B27 serum substitute, penicillin, streptomycin and L-glutamate for 2 days in vitro (DIV). The plates were precoated with aggrecan (5 ug/ml, 150 µl/well). Protamine or protamine peptides were added to the culture medium at different concentrations. To analyze the effect of protamine or its fragment on neurite outgrowth, the plates were coated with 10 μg/ml of protamine or LMWP. For the experiment with chondroitinase, the aggrecan-coated plates were treated with chondroitinase ABC (Amsbio AMS. E1028, lot CF0029) for 4 h followed by 2 times washing with PBS before cell plating, and the cell culture imaging was carried out after 3 DIV incubation with 4 uM LMWP added to the medium. Neurite outgrowth was imaged with phase contrast microscopy (Olympus IX70 microscope and Retiga 2000R digital camera) using both x10 and x20 objectives. Processes of neurons over the diameter of the neuronal soma were interpreted as neurites. Neurite length was measured with ImageJ software and averaged from 2 to 3 independent experiments with 1–2 technical replicas in each independent experiment.

cortical neurons = experiment: neurite outgrowth on chondroitinase ABC-treated aggrecan substrate, cortical neurons; type: cell-based, Wistar rat; conditions: ChABC 4 h, 4 µM LMWP in medium, 3 DIV; p = 0.012, unpaired t-test, n = 6; Figure 5B
Description: as §1

[3] = tested on: mouse cervical hemicontusion model; experiment: vertical screen test, C5 hemicontusion, ICV delivery; type: in vivo, C57BL6/NHsd mouse; conditions: n = 6–11
Description: The mouse was placed on the brink of a horizontal wire screen (25 × 22 cm, diameter of wires 2 mm spaced at 1 cm) faced to edge. Immediately after that the screen was turned vertically to place the mouse to the upside down position at the lower edge. The time that the animal needed to climb to the upper edge was measured during 1 min. If the animal was not able to climb up or fell down from the screen the maximum time 60 s was marked as the climbing time. The average parameter of three subsequent trials repeated with at least 1 min interval was used for data analysis.

[4] = tested on: NF200+ fibers in trauma hemisphere of spinal cord; experiment: NF200 immunohistochemistry, C5 hemicontusion, subcutaneous delivery; type: in vivo, C57BL6/NHsd mouse; conditions: 16 µg s.c. daily 49 days
Description: (§2) The effectiveness of systemically delivered LMWP in treatment of spinal cord trauma was tested in the cervical hemicontusion model (Figure 1B). Baseline behavior was assessed 1 week before the trauma surgery, and the results were used for balanced distribution of animals to the 3 experimental groups (“sham”, “trauma + PBS” and “trauma + LMWP”). Each housing cage contained animals from all three groups. Subcutaneous injections to the back area were started on the next day after the trauma and continued daily for 49 days. LMWP was injected subcutaneously at the 16 µg dose in 200 µl of sterile PBS. The groups “sham” and “trauma + PBS” got the same volume of PBS. Behavioral assessment was started 2 weeks after the trauma and finished at the week 12.
The samples for immunohistochemistry (IHC) were taken from all animals tested in the hemicontusion study with subcutaneous 7 weeks treatment (Figure 1B) at the end of the experiment at 12 weeks (Figure 1B). The cervical spinal cord segments were sectioned into 40 microns thick transverse sections from tissue blocks (samples embedded into solid OCT compound by freezing with dry ice) by using microtome (Leica CM3050 S). Few spinal cord samples were excluded from the study due to technical problems in spinal cord dissection or sectioning procedures, and the total amount of 11 spinal cords of the “trauma + PBS” and 7 spinal cords of the “trauma + LMWP” group were analyzed. Every fourth section per animal was chosen for IHC neurofilament staining making the section interval […]. The sections were stained with primary antibodies against NF200 (ab8135, Abcam, 1:500) in blocking buffer (1xTBS with 0.5% TX-100 and with 3%BSA) and AlexaFluor 594 (REF A11037, Invitrogen) secondary antibodies at the dilution 1:400 in TBS-T (1xTBS with 0.5% TX-100) on microscope slides. The washings prior to and between the stainings were done with TBS-T, whereas the final wash before mounting with Vectastain mounting medium with DAPI, was done by using reverse osmose water. […]

[5] = tested on: mouse cervical hemicontusion model; experiment: locomotor activity in open field, C5 hemicontusion, subcutaneous delivery; type: in vivo, C57BL6/NHsd mouse; conditions: 15 min open field, 16 µg s.c. daily 49 days; n = 7–13
Description: as §2
To evaluate the locomotor activity the animals were released to the corner of a transparent plexiglas chamber (30 cm × 30 cm, MedAssiociates, St.Albans,VT; illumination about 100lx) for 15 min. The travelled distance and the time spent in vertical activity (exploratory rearings) were analyzed with the Activity Monitor v5.1 software (Med Associates, St. Albans, VT).

[6] = cited from earlier work
Excerpt: We therefore tested protamine fragments that might be nontoxic but would still retain the ability to overcome the CSPG inhibition. […] This fragment is found in the literature as the low-molecular weight protamine (LMWP) with the capability to penetrate through the cell membranes and to carry drug cargoes to tissues including ...

Sequence: VSRRRRRRGGRRRR [LMWP, low-molecular weight protamine]
- total neurite length versus uncoated control (hippocampal neurons [1]): increased the total neurite length as compared to the parallel control cultures
- toxicity for neuronal cells (summary) (hippocampal neurons [2]): little if any toxicity even at high concentrations
- effect of CS digestion of aggrecan by chondroitinase ABC on LMWP-induced neurite outgrowth (cortical neurons): significantly decreased the neurite outgrowth-promoting effect of LMWP; also recorded: abolished the activity of LMWP to enhance neurite outgrowth
- vertical climbing test, time course ([3]; ICV LMWP 4 µl of 1 mg/ml daily, 6 days from day 3): progressive improvement in the vertical climbing test; also recorded: progressively improve the climbing function in the vertical screen test starting from the week 3 after the trauma induction
- climbing time versus sham after second post-trauma week ([3]; ICV LMWP, week 3 p = 0.1508, week 4 p = 0.1311, week 5 p = 0.6967, PBS group differed from sham until week 5): did not reveal a significant difference after the second post-trauma week
- NF200+ signal area near trauma epicenter versus PBS ([4]; 60 µm rostral, p = 0.0064, no similar trend in the sections around): significant difference of the NF200+ signal area in one section level localized almost in the middle of the trauma epicenter
- area of NF200+ signal on trauma periphery versus PBS ([4]; about ±400 µm from epicenter: 400 µm rostral p = 0.0021, −400 µm caudal p = 0.0346, Mann-Whitney, n = 7–11): increased the area of the NF200+ signal in the section levels located on the trauma periphery
- NF200+ fibers (%) in trauma hemisphere, LMWP versus control group ([4]; week 12, n = 7–11): statistically significant group difference between the LMWP-treated mice and the control mice in NF200+ fibers (%)
- general locomotor activity [5]: did not affect general locomotor activity
- blood-brain barrier passage [6]: reported to pass the blood-brain barrier
- cell membrane penetration and cargo delivery to tissues including the brain [6]: capability to penetrate through the cell membranes and to carry drug cargoes to tissues including the brain
- toxicity relative to protamine ([6]; ref Byun et al., 2000, He et al., 2014, Edwards et al., 2020): non-toxic substitute of protamine
